# Assay results from paper PMC9090415, “Discovery of small molecule inhibitors of Plasmodium falciparum apicoplast DNA polymerase” (Journal of Enzyme Inhibition and Medicinal Chemistry, 2022).
# Target: P. falciparum apicoplast DNA polymerase (Pf-apPOL) (Plasmodium falciparum, UniProt Q8ILY1)
# Assay: Fluorescence-based high-throughput DNA polymerase assay (molecular beacon), primary screen and dose-response;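 as to % inhibition ApPOL 90': test concentration in µM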;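 as to % inhibition apPOL 180': test concentration in µM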
# Assay type: biochemical
# Conditions: for DNA Pol: 90 min, 10 µM; for IC50: supplemental file 2, sheet IC50 nontoxic compounds, Pf-apPOL
# In short: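 Single-point screening used 10 µM compound with 20 nM polymerase, 20 nM hairpin substrate and 6 µM dNTPs for 90 min at 25 °C. Confirmatory titrations (2.5–80 µM) followed fluorescence at three times, and IC50 was derived from a fit including a cooperativity term n.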
# Sequence of P. falciparum apicoplast DNA polymerase (Pf-apPOL) (Q8ILY1 entry or part of it): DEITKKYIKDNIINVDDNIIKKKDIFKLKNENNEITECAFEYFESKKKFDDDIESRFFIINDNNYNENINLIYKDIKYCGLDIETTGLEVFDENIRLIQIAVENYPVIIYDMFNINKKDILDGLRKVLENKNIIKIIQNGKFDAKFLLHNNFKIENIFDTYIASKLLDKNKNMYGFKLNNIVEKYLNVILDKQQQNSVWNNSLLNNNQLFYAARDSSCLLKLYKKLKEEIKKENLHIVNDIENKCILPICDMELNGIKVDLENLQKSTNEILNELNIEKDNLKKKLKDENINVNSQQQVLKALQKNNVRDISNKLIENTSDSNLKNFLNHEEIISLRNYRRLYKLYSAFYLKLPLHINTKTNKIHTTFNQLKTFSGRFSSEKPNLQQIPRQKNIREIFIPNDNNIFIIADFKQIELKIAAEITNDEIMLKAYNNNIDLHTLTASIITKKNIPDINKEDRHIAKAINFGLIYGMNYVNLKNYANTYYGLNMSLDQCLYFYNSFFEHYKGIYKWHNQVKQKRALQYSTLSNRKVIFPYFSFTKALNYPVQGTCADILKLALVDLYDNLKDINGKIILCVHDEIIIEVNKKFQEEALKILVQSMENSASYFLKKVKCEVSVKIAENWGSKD
smiles,measurement,setting,value
"NC(=O)c1cc[n+](CC2=C(C(=O)[O-])N3C(=O)[C@@H](NC(=O)[C@@H](c4ccccc4)S(=O)(=O)[O-])[C@H]3SC2)cc1.[Na+] [Molecule 9, O=C([C@H](S(=O)(=O)[O-])c1ccccc1)N[C@@H]1C(=O)N2[C@@H]1SCC(=C2C(=O)[O-])C[n+]1ccc(cc1)C(=O)N.[Na+]]",DNA Pol,"'DNA Pol' of the 186 hits list (primary screen result), unit not given",104
same,% inhibition Apo pol 10',"DRC-1, concentration 2.5",39.849%
same,% inhibition Apo pol 10',"DRC-1, concentration 5",54.1804%
same,% inhibition Apo pol 10',"DRC-1, concentration 10",77.8206%
same,% inhibition Apo pol 10',"DRC-1, concentration 20",94.0018%
same,% inhibition Apo pol 10',"DRC-1, concentration 40",97.9008%
same,% inhibition Apo pol 10',"DRC-1, concentration 80",96.5672%
same,% inhibition Apol 90',"DRC-1, concentration 2.5",3.442%
same,% inhibition Apol 90',"DRC-1, concentration 5",17.2714%
same,% inhibition Apol 90',"DRC-1, concentration 10",53.7945%
same,% inhibition Apol 90',"DRC-1, concentration 20",88.3864%
same,% inhibition Apol 90',"DRC-1, concentration 40",97.5%
same,% inhibition Apol 90',"DRC-1, concentration 80",97.5161%
same,% inhibition apPOL 180',"DRC-1, 180', concentration 2.5",-2.063%
same,% inhibition apPOL 180',"DRC-1, 180', concentration 5",5.595%
same,% inhibition apPOL 180',"DRC-1, 180', concentration 10",40.8592%
same,% inhibition apPOL 180',"DRC-1, 180', concentration 20",84.7929%
same,% inhibition apPOL 180',"DRC-1, 180', concentration 40",96.7618%
same,% inhibition apPOL 180',"DRC-1, 180', concentration 80",97.7754%
same,% inhibition Apo pol 5',"DRC-2, 5', concentration 20 (unit not given)",56%
same,% inhibition Apol 40',"DRC-2, 40', concentration 40 (unit not given)",76%
same,% inhibition Apol 40',"DRC-2, 40', concentration 80 (unit not given)",76%
same,% inhibition apPOL 180',"DRC-2, 180', concentration 40 (unit not given)",83%
same,% inhibition apPOL 180',"DRC-2, 180', concentration 80 (unit not given)",83%
same,% inhibition Apo pol 5',"DRC-2, 5', concentration 2.5",21%
same,% inhibition Apo pol 5',"DRC-2, 5', concentration 5",28%
same,% inhibition Apo pol 5',"DRC-2, 5', concentration 10",47%
same,% inhibition Apo pol 5',"DRC-2, 5', concentration 20",56%
same,% inhibition Apo pol 5',"DRC-2, 5', concentration 40",58%
same,% inhibition Apo pol 5',"DRC-2, 5', concentration 80",56%
same,% inhibition Apo pol 5',"DRC-2, 5', concentration 80 (unit not given)",56%
same,% inhibition Apol 40',"DRC-2, 40', concentration 2.5",-0.192%
same,% inhibition Apol 40',"DRC-2, 40', concentration 5",15%
same,% inhibition Apol 40',"DRC-2, 40', concentration 10",49%
same,% inhibition Apol 40',"DRC-2, 40', concentration 20",71%
same,% inhibition Apol 40',"DRC-2, 40', concentration 40",76%
same,% inhibition Apol 40',"DRC-2, 40', concentration 80",76%
same,% inhibition ApPOL 90',"DRC-2, concentration 2.5",-4%
same,% inhibition ApPOL 90',"DRC-2, concentration 5",8%
same,% inhibition ApPOL 90',"DRC-2, concentration 10",46%
same,% inhibition ApPOL 90',"DRC-2, concentration 20",74%
same,% inhibition ApPOL 90',"DRC-2, concentration 40",81%
same,% inhibition ApPOL 90',"DRC-2, concentration 80",80%
same,% inhibition apPOL 180',"DRC-2, 180', concentration 2.5",1.56%
same,% inhibition apPOL 180',"DRC-2, 180', concentration 5",9%
same,% inhibition apPOL 180',"DRC-2, 180', concentration 10",41%
same,% inhibition apPOL 180',"DRC-2, 180', concentration 20",75%
same,% inhibition apPOL 180',"DRC-2, 180', concentration 40",83%
same,% inhibition apPOL 180',"DRC-2, 180', concentration 80",83%
same,DNA Pol,"primary screen value of the library well, unit not given",104
NC(=O)c1cc[n+](CC2=C(C(=O)O)N3C(=O)[C@@H](NC(=O)[C@@H](c4ccccc4)S(=O)(=O)[O-])[C@H]3SC2)cc1 [Molecule 9],IC50,,4.4 µM
"COc1ccc(NC(=O)Cn2ccc3c(=O)[nH]ccc32)cc1Cl [Molecule 10, COc1ccc(cc1Cl)NC(=O)Cn1ccc2c1cc[nH]c2=O]",% inhibition Apo pol 10',"DRC-1, concentration 2.5",12.1098%
same,% inhibition Apo pol 10',"DRC-1, concentration 5",41.0198%
same,% inhibition Apo pol 10',"DRC-1, concentration 10",64.5653%
same,% inhibition Apo pol 10',"DRC-1, concentration 20",78.092%
same,% inhibition Apo pol 10',"DRC-1, concentration 40",83.862%
same,% inhibition Apo pol 10',"DRC-1, concentration 80",74.6013%
same,% inhibition Apol 90',"DRC-1, concentration 2.5",1.658%
same,% inhibition Apol 90',"DRC-1, concentration 5",26.4531%
same,% inhibition Apol 90',"DRC-1, concentration 10",48.8726%
same,% inhibition Apol 90',"DRC-1, concentration 20",69.5261%
same,% inhibition Apol 90',"DRC-1, concentration 40",86.3942%
same,% inhibition Apol 90',"DRC-1, concentration 80",83.0123%
same,% inhibition apPOL 180',"DRC-1, 180', concentration 2.5",-4.328%
same,% inhibition apPOL 180',"DRC-1, 180', concentration 5",12.6648%
same,% inhibition apPOL 180',"DRC-1, 180', concentration 10",30.7094%
same,% inhibition apPOL 180',"DRC-1, 180', concentration 20",56.2759%
same,% inhibition apPOL 180',"DRC-1, 180', concentration 40",85.5137%
same,% inhibition apPOL 180',"DRC-1, 180', concentration 80",84.9384%
same,% inhibition Apo pol 5',"DRC-2, 5', concentration 2.5",22%
same,% inhibition Apo pol 5',"DRC-2, 5', concentration 5",37%
same,% inhibition Apo pol 5',"DRC-2, 5', concentration 10",48%
same,% inhibition Apo pol 5',"DRC-2, 5', concentration 20",44%
same,% inhibition Apo pol 5',"DRC-2, 5', concentration 40",37%
same,% inhibition Apo pol 5',"DRC-2, 5', concentration 80",19%
same,% inhibition Apol 40',"DRC-2, 40', concentration 2.5",23%
same,% inhibition Apol 40',"DRC-2, 40', concentration 5",47%
same,% inhibition Apol 40',"DRC-2, 40', concentration 10",64%
same,% inhibition Apol 40',"DRC-2, 40', concentration 20",65%
same,% inhibition Apol 40',"DRC-2, 40', concentration 40",62%
same,% inhibition Apol 40',"DRC-2, 40', concentration 80",51%
same,% inhibition ApPOL 90',"DRC-2, concentration 2.5",20%
same,% inhibition ApPOL 90',"DRC-2, concentration 5",45%
same,% inhibition ApPOL 90',"DRC-2, concentration 10",66%
same,% inhibition ApPOL 90',"DRC-2, concentration 20",69%
same,% inhibition ApPOL 90',"DRC-2, concentration 40",68%
same,% inhibition ApPOL 90',"DRC-2, concentration 80",59%
same,% inhibition apPOL 180',"DRC-2, 180', concentration 2.5",8%
same,% inhibition apPOL 180',"DRC-2, 180', concentration 5",34%
same,% inhibition apPOL 180',"DRC-2, 180', concentration 10",62%
same,% inhibition apPOL 180',"DRC-2, 180', concentration 20",70%
same,% inhibition apPOL 180',"DRC-2, 180', concentration 40",73%
same,% inhibition apPOL 180',"DRC-2, 180', concentration 80",67%
same,% inhibition Apo pol 5',"conc. 5, 5', DRC-2",37%
same,% inhibition apPOL 180',"conc. 10, 180', DRC-2",62%
same,% inhibition Apo pol 5',"conc. 40, 5', DRC-2",37%
same,% inhibition Apol 40',"conc. 40, 40', DRC-2",62%
same,DNA Pol,primary screen value by plate and well,78
same,DNA Pol,"primary screen value of the 186 hits, unit not given",78
COc1ccc(NC(=O)Cn2ccc3c(=O)[nH]ccc32)cc1Cl [Molecule 10],IC50,,6.2 µM
